Data on 38 molecules can be found in PubChem BioAssay AID857 (Vanderbilt High Throughput Screening Facility, 2007).

This test concerns the target D(1B) dopamine receptor (Homo sapiens) (UniProt P21918). The test is described as follows: dopamine D5 receptor modulation at EC30 dopamine, dose response, selectivity assay for D1 allosteric modulator project, cell-based, HEK293, CRE-luciferase, luminescence (AID 857).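 Further: HEK 293 cells expressing human D5 with a CRE-driven luciferase reporter.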

Activity calls are given as the source filed them.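 How the source made its calls: active means a full or partial dose-response curve in at least two of three replicate runs; inactive means the rest.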

Chain of D(1B) dopamine receptor (Homo sapiens) (P21918 whole entry, looked up): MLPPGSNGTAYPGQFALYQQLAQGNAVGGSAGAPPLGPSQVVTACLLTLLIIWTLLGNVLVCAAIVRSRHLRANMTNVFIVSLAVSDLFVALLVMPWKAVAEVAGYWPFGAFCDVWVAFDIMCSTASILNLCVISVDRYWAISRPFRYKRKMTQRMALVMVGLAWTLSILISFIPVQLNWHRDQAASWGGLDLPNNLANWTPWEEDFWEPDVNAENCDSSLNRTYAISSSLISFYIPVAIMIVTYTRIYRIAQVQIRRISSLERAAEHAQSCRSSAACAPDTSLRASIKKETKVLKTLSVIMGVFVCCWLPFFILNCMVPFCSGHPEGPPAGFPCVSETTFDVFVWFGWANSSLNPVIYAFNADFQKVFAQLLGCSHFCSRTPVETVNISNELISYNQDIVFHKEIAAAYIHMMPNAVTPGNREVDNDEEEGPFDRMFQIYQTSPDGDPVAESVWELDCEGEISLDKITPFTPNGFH

For the molecule `CCn1c(=O)c(C(=O)NCc2cccnc2)c(O)c2ccccc21`, the result was inactive.

In the case of `Fc1ccc(NC2=NCCS2)cc1Cl`, the result was inactive. Take `CCOC(=O)c1cc2c(=O)n3ccccc3nc2n(CCCOC)c1=NC(=O)C(C)(C)C`: the result was inactive. `CCn1c(SCC(=O)Nc2ccccc2N2CCCCC2)nc2c1c(=O)n(C)c(=O)n2C`: the result was inactive. For `CCOc1nc(NCCc2ccc(OC)c(OC)c2)nc(NC(C)(C)CO)n1`, the result was inactive.

Regarding `COc1ccc2cc3c(N)nn(C(=O)Cc4ccccc4OC)c3nc2c1`, the EC50 (commonly the concentration that produces a half-maximal response) is 635 nM.

In the case of `CSc1ccc(C2C(C#N)=C(N)N(c3ccccc3)C3=C2C(=O)CCC3)cc1` (stereo not drawn), the result was inactive. Same read-out and setting: in the case of `Nc1nonc1-n1nnc(C(=O)c2ccccc2)c1-c1ccccc1` it was “inactive”. On to `CCn1ncc(C2=NOC(C(=O)NCc3ccccc3)C2)c1C` (stereo not drawn), for which the result was inactive. For `Cc1cc(=O)oc2cc(OCC(=O)NCCc3nc4ccccc4[nH]3)ccc12`, the result was inactive. The same measure, in the same setting: in the case of `Cc1oc2ccc(OCC(N)=O)cc2c1C(=O)OC(C)C` it was “inactive”; in that of `CCn1cc(C(=O)OCC(=O)OC2CC(C)CCC2C(C)C)c(=O)c2ccc(C)nc21` (stereo not drawn), “inactive”; in that of `O=C1CC(c2ccsc2)c2cc3c(cc2N1)OCCO3` (stereo not drawn), “inactive”. In the case of `Cc1cc(N)n(-c2nc(-c3cccnc3)nc3ccccc23)n1`, the outcome was inactive. Regarding `CCC(=O)NC(=Nc1nc2ccccc2s1)NC(=O)CC`, the EC50 was 1900 nM.

For `CCn1nc(C(=O)NC2=NCCS2)c2ccccc2c1=O`, the result was inactive. The same measure, in the same setting: for `CC(=NCc1cccnc1)C1=C(O)c2ccccc2C1=O` the value was “inactive”; for `CCOC(=O)c1c(C)c(C(=O)NCc2ccccc2OC)c(C)n1C`, “inactive”.

Turning to `CCCn1c(=NC(=O)c2ccco2)c(C(=O)OCC)cc2c(=O)n3ccccc3nc21`, the outcome was inactive. The same measure, in the same setting: for `COc1ccc(-c2noc(CCN3C(=O)c4ccccc4C3=O)n2)cc1OC` the value was “inactive”. On the same count and under the same terms, for `CCN(CC)c1nc(N)c2c(N)nc3c(c2c1C#N)CC(c1ccccc1)O3` (stereo not drawn) the value was “inactive”. The same measure, in the same setting: in the case of `COc1nc(C)ccc1-c1noc(-c2ccncc2)n1` it was “inactive”; in that of `Cc1ccc(-c2cc(-c3ccc(C)o3)nc(N)c2C#N)cc1`, “inactive”. Turning to `Clc1ccccc1Cn1nnc2c(N3CCCC3)ncnc21`, the result was inactive.

For `Cc1c(C)c2ccc(OC3CCCCC3=O)cc2oc1=O` (stereo not drawn), the outcome was inactive. On to `Cc1nnc(SCCn2c(N3CCCC(C)C3)nc3c2c(=O)[nH]c(=O)n3C)s1` (stereo not drawn), for which the result was inactive.

Consider `Cc1cc(=O)c2n(Cc3ccc(Cl)cc3)nc[n+]2[nH]1`, for which the outcome was inactive. Still for that read-out and setting: for `Cc1cccc(C2CC(c3ccc(F)cc3)Nc3nc(N)nn32)c1` (stereo not drawn) the value was “inactive”; for `O=C1C(Cl)=C(NCC2CCCO2)C(=O)N1C1CCCCC1` (stereo not drawn), “inactive”. The same measure, in the same setting: for `CCNc1nc(NC(C)(C)C)nc(N(CC)n2cnnc2)n1` the value was “inactive”. Same read-out and setting: in the case of `Brc1ccc(-c2nn3c(Cc4ccccc4)nnc3s2)o1` it was “inactive”.

As to `Cc1csc2c(C#N)c(=O)c3c(n12)CCC3`, the result was inactive. On the same count and under the same terms, in the case of `CCOC(=O)C(O)(CCC(O)(C(=O)OCC)C(=O)OCC)C(=O)OCC` it was “inactive”; in that of `COC(=O)c1cccc(N2C(=O)C(Cl)=C(N3CCOCC3)C2=O)c1`, “inactive”; in that of `Cc1noc(C)c1S(=O)(=O)N1CCCC(C(=O)NCc2ccccn2)C1` (stereo not drawn), “inactive”. `CCCCCn1c(N)c(C#N)c2nc3ccccc3nc21`: the result was inactive. For the molecule `CCCn1c(=O)c2ccccc2n2c(SCc3nc4ccccc4s3)nnc12`, the outcome was inactive.

On to `COc1ccc(-n2nc3ccccc3n2)cc1`, for which the outcome was inactive.
